The values that follow come from ChEMBL document CHEMBL1148103, “Antifungal steroidal glycosides from the patagonian starfish anasteriasminuta: structure-activity correlations” (2002).

Active and inactive are the calls of the source. The calls are words filed in the database; no cut-off is given here.

For one assay, the system named is Cladosporium cucumerinum. Put plainly: Antifungal activity against Cladosporium cucumerinum at 10 ug/spot after 2 to 3 days by bioautographic assay. The format is functional.
On to `CCCCNC(=O)n1c(NC(=O)OC)nc2ccccc21` [BENOMYL], for which the “inhibition zone (IZ)” value is 20 mm.

In a further assay the test system is Cladosporium cucumerinum. Put plainly: Antifungal activity against Cladosporium cucumerinum after 2 to 3 days by bioautographic assay. The format is functional, organism-based.
Turning to `CC(C)CC(=O)C[C@@](C)(O)[C@H]1CC[C@H]2[C@@H]3C[C@H](O[C@@H]4O[C@H](C)[C@@H](O)[C@H](O[C@@H]5OC[C@@H](O)[C@H](O)[C@H]5O[C@@H]5O[C@H](C)[C@@H](O)[C@H](O)[C@H]5O)[C@H]4O)[C@H]4C[C@@H](OS(=O)(=O)O)CC[C@]4(C)C3=CC[C@@]21C`, the outcome was inactive. Same read-out and setting: in the case of `CC(C)CC(=O)C[C@@](C)(O)[C@H]1CC[C@H]2[C@@H]3C[C@H](O[C@@H]4O[C@H](C)[C@@H](O)[C@H](O[C@@H]5OC[C@@H](O[C@@H]6O[C@H](CO)[C@H](O)[C@H](O)[C@H]6O[C@@H]6O[C@H](C)[C@H](O)[C@H](O)[C@H]6O)[C@H](O)[C@H]5O[C@@H]5O[C@H](C)[C@@H](O)[C@H](O)[C@H]5O)[C@H]4O)[C@H]4C[C@@H](OS(=O)(=O)O)CC[C@]4(C)C3=CC[C@@]21C` it was “Dose-dependent effect”; in that of `CC(C)CC(=O)C[C@@H](C)[C@H]1CC[C@H]2[C@@H]3C[C@H](O[C@@H]4O[C@H](C)[C@@H](O)[C@H](O[C@@H]5OC[C@@H](O[C@@H]6O[C@H](CO)[C@H](O)[C@H](O)[C@H]6O[C@@H]6O[C@H](C)[C@H](O[C@@H]7O[C@H](CO)[C@H](O)[C@H](O)[C@H]7O)[C@H](O)[C@H]6O)[C@H](O)[C@H]5O[C@@H]5O[C@H](C)[C@@H](O)[C@H](O)[C@H]5O)[C@H]4O)[C@H]4C[C@@H](OS(=O)(=O)O)CC[C@]4(C)C3=CC[C@]12C`, “Dose-dependent effect”; in that of `CC(=O)[C@H]1CC[C@H]2[C@@H]3C[C@H](O[C@@H]4O[C@H](C)[C@@H](O)[C@H](O[C@@H]5OC[C@@H](O[C@@H]6O[C@H](CO)[C@H](O)[C@H](O)[C@H]6O[C@@H]6O[C@H](C)[C@H](O[C@@H]7O[C@H](CO)[C@H](O)[C@H](O)[C@H]7O)[C@H](O)[C@H]6O)[C@H](O)[C@H]5O[C@@H]5O[C@H](C)[C@@H](O)[C@H](O)[C@H]5O)[C@H]4O)[C@H]4C[C@@H](OS(=O)(=O)O)CC[C@]4(C)C3=CC[C@]12C`, “inactive”. Same read-out and setting: in the case of `CC(C)CC(=O)C[C@@](C)(O)[C@H]1CC[C@H]2[C@@H]3C[C@H](O[C@@H]4O[C@H](C)[C@@H](O)[C@H](O[C@@H]5OC[C@@H](O[C@@H]6O[C@H](CO)[C@H](O)[C@H](O)[C@H]6O[C@@H]6O[C@H](C)[C@H](O[C@@H]7O[C@H](CO)[C@H](O)[C@H](O)[C@H]7O)[C@H](O)[C@H]6O)[C@H](O)[C@H]5O[C@@H]5O[C@H](C)[C@@H](O)[C@H](O)[C@H]5O)[C@H]4O)[C@H]4C[C@@H](OS(=O)(=O)O)CC[C@]4(C)C3=CC[C@@]21C` it was “Dose-dependent effect”.
